Experimental data published in PubChem BioAssay (NCI).
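Cultured in 96-well plates, cells were exposed to test compound for 48 hours across five concentrations. GI50 is the concentration that inhibits growth by half. TGI denotes the concentration required for complete inhibition of growth.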

How the values were obtained:
Experiment in all cases: NCI-60 cell line screen, 48 h
[1] = test system: SNB-75 CNS
[2] = test system: T-47D breast
[3] = test system: KM12 colon
[4] = test system: HT29 colon
[5] = test system: NCI-H522 lung
[6] = test system: SK-MEL-28 melanoma
[7] = test system: EKVX NSCLC
[8] = test system: MDA-N
[9] = test system: SF-268 CNS
[10] = test system: MOLT-4 leukemia
[11] = test system: HS 578T breast
[12] = test system: K-562 leukemia
[13] = test system: PC-3 prostate
[14] = test system: HCT-116 colon
[15] = test system: OVCAR-3 ovarian
[16] = test system: HOP-62 NSCLC
[17] = test system: SK-MEL-5 melanoma
[18] = test system: CAKI-1 renal
[19] = test system: 786-0 renal
[20] = test system: RXF 393 renal
[21] = test system: SW-620 colon
[22] = test system: SK-MEL-2 melanoma
[23] = test system: U251 CNS
[24] = test system: HOP-92 NSCLC
[25] = test system: COLO 205 colon
[26] = test system: DU-145 prostate
[27] = test system: MCF7 breast
[28] = test system: UO-31 renal
[29] = test system: UACC-257 melanoma
[30] = test system: SF-295 CNS
[31] = test system: SNB-19 CNS
[32] = test system: SN12C renal
[33] = test system: MALME-3M melanoma
[34] = test system: LOX IMVI melanoma
[35] = test system: OVCAR-4 ovarian
[36] = test system: SR leukemia
[37] = test system: RPMI-8226 leukemia
[38] = test system: OVCAR-8 ovarian
[39] = test system: HL-60(TB) leukemia
[40] = test system: IGROV1 ovarian
[41] = test system: MDA-MB-231 breast
[42] = test system: M14 melanoma
[43] = test system: SK-OV-3 ovarian
[44] = test system: NCI-H226 lung
[45] = test system: A498 renal
[46] = test system: TK-10 renal
[47] = test system: CCRF-CEM leukemia
[48] = test system: OVCAR-5 ovarian
[49] = test system: SF-539 CNS
[50] = test system: MDA-MB-435
[51] = test system: ACHN renal
[52] = test system: A549 NSCLC
[53] = test system: NCI-H23 lung
[54] = test system: HCC-2998 colon
[55] = test system: BT-549 breast
[56] = test system: HCT-15 colon
[57] = test system: NCI-H460 lung
[58] = test system: NCI/ADR-RES ovarian
[59] = test system: UACC-62 melanoma

Question: Which results are given for `COC(=O)/C=C(\CC(=O)OC)n1nnnc1[C@@H]1C[C@H](COC(c2ccccc2)(c2ccccc2)c2ccccc2)[C@H]2OC(C)(C)O[C@H]21`?
Answer: TGI [1]: > 100 µM; TGI [2]: > 100 µM; TGI [3]: > 100 µM; TGI [4]: > 100 µM; TGI [5]: > 100 µM; TGI [6]: > 100 µM; TGI [7]: > 100 µM; TGI [8]: > 100 µM; TGI [9]: > 100 µM; TGI [10]: > 100 µM; TGI [11]: > 100 µM; TGI [12]: > 100 µM; TGI [13]: > 100 µM; TGI [14]: > 100000 nM; TGI [15]: > 100 µM; TGI [16]: > 100 µM; TGI [17]: > 100 µM; TGI [18]: > 100 µM; TGI [19]: > 100 µM; TGI [20]: > 100 µM; TGI [21]: > 100 µM; TGI [22]: > 100 µM; TGI [23]: > 100 µM; TGI [24]: > 100 µM; TGI [25]: > 100 µM; TGI [26]: > 100 µM; TGI [27]: > 100 µM; TGI [28]: > 100 µM; TGI [29]: > 100 µM; TGI [30]: > 100 µM; TGI [31]: > 100 µM; TGI [32]: > 100 µM; TGI [33]: > 100 µM; TGI [34]: > 100 µM; TGI [35]: > 100 µM; TGI [36]: > 100 µM; TGI [37]: > 100 µM; TGI [38]: > 100 µM; TGI [39]: > 100 µM; TGI [40]: > 100 µM; TGI [41]: > 100 µM; TGI [42]: > 100 µM; TGI [43]: > 100 µM; TGI [44]: > 100 µM; TGI [45]: > 100 µM; TGI [46]: > 100 µM; TGI [47]: > 100 µM; TGI [48]: > 100 µM; TGI [49]: > 100 µM; TGI [50]: > 100 µM; TGI [51]: > 100 µM; TGI [52]: > 100 µM

Question: What does the source list for `O[C@@]12Cc3c([nH]c4ccccc34)[C@@H]3Oc4cccc5c4[C@@]31CCN(CC1CC1)[C@@H]2C5`?
Answer: TGI [3]: 54 µM; TGI [4]: 29.8 µM; TGI [5]: 38 µM; TGI [6]: 38.3 µM; TGI [7]: 47.6 µM; TGI [8]: 33.9 µM; TGI [9]: 34 µM; TGI [10]: 52.7 µM; TGI [53]: 55.6 µM; TGI [12]: 55.4 µM; TGI [13]: 30.7 µM; TGI [15]: 36.8 µM; TGI [54]: 31.9 µM; TGI [16]: 46.6 µM; TGI [17]: 40.7 µM; TGI [18]: 34.2 µM; TGI [21]: 25.7 µM; TGI [22]: 41.5 µM; TGI [23]: 54 µM; TGI [55]: 35.3 µM; TGI [24]: 25.6 µM; TGI [25]: 49.8 µM; TGI [26]: 45.2 µM; TGI [27]: 31.3 µM; TGI [28]: 32.9 µM; TGI [29]: 42 µM; TGI [31]: 50.9 µM; TGI [32]: 37 µM; TGI [33]: 33.9 µM; TGI [34]: 32.9 µM; TGI [35]: 41.3 µM; TGI [36]: > 100 µM; TGI [37]: 41.2 µM; TGI [38]: 29 µM; TGI [40]: 45.4 µM; TGI [41]: 40.4 µM; TGI [56]: 32.6 µM; TGI [42]: 39.4 µM; TGI [57]: 60.9 µM; TGI [45]: 40.5 µM; TGI [46]: 33.7 µM; TGI [47]: 29.9 µM; TGI [48]: 49.4 µM; TGI [58]: 51.2 µM; TGI [59]: 32.3 µM; TGI [49]: 36.3 µM; TGI [50]: 29.2 µM; TGI [51]: 34.8 µM; TGI [52]: 43.5 µM

Question: What does the source list for `COc1cc(/C=C/C(=O)c2cccc(-n3cc(-c4ccc(Cl)cc4)[nH]c3=O)c2)cc(OC)c1OC`?
Answer: GI50 [1]: 20.5 µM; TGI [1]: > 100 µM; GI50 [2]: 6.65 µM; TGI [2]: 51.5 µM; GI50 [3]: 5.45 µM; TGI [3]: 18.6 µM; GI50 [4]: 2000 nM; TGI [4]: 3.71 µM; GI50 [5]: 4.1 µM; TGI [5]: 21.9 µM; GI50 [6]: 10.9 µM; TGI [6]: 25.6 µM; GI50 [7]: 23.9 µM; TGI [7]: > 100 µM; GI50 [9]: 5.07 µM; TGI [9]: 39.2 µM; GI50 [10]: 5.24 µM; TGI [10]: > 100 µM; GI50 [53]: 3.56 µM; TGI [53]: 16.9 µM; GI50 [11]: 5.96 µM; TGI [11]: > 100 µM; GI50 [12]: 3.69 µM; TGI [12]: > 100 µM; GI50 [13]: 16.5 µM; TGI [13]: > 100 µM; GI50 [14]: 1390 nM; TGI [14]: 2680 nM; GI50 [15]: 2480 nM; TGI [15]: 6.02 µM; GI50 [54]: 2460 nM; TGI [54]: 7.36 µM; GI50 [16]: 23.6 µM; TGI [16]: 57.3 µM; GI50 [17]: 8.7 µM; TGI [17]: 23.7 µM; GI50 [18]: 15.6 µM; TGI [18]: 95.5 µM; GI50 [19]: 2140 nM; TGI [19]: 5.39 µM; GI50 [20]: 3.22 µM; TGI [20]: 7.7 µM; GI50 [21]: 1750 nM; TGI [21]: 3.17 µM; GI50 [22]: 3.44 µM; TGI [22]: 12.5 µM; GI50 [23]: 2120 nM; TGI [23]: 4.62 µM; GI50 [55]: 12.3 µM; TGI [55]: 79.9 µM; GI50 [24]: > 100 µM; TGI [24]: > 100 µM; GI50 [25]: 7.38 µM; TGI [25]: 20.2 µM; GI50 [26]: 4.53 µM; TGI [26]: 27 µM; GI50 [27]: 1740 nM; TGI [27]: 5.75 µM; GI50 [28]: 7.03 µM; TGI [28]: 21.3 µM; GI50 [29]: 17.4 µM; TGI [29]: 90.9 µM; GI50 [30]: 24.3 µM; TGI [30]: > 100 µM; GI50 [31]: 16.1 µM; TGI [31]: 37 µM; GI50 [32]: 5.14 µM; TGI [32]: 28.5 µM; GI50 [33]: 18.1 µM; TGI [33]: > 100 µM; GI50 [34]: 1720 nM; TGI [34]: 3.2 µM; GI50 [35]: 11.4 µM; TGI [35]: 38 µM; GI50 [36]: 3.03 µM; TGI [36]: > 100 µM; GI50 [37]: 3.92 µM; TGI [37]: > 100 µM; GI50 [38]: 3.85 µM; TGI [38]: > 100 µM; GI50 [39]: 15.7 µM; TGI [39]: > 100 µM; GI50 [40]: 4.68 µM; TGI [40]: 19 µM; GI50 [41]: 13.8 µM; TGI [41]: 48.6 µM; GI50 [56]: 3.85 µM; TGI [56]: 10.3 µM; GI50 [42]: 4.36 µM; TGI [42]: 18.3 µM; GI50 [43]: 31.4 µM; TGI [43]: > 100 µM; GI50 [57]: 3.74 µM; TGI [57]: 11.8 µM; GI50 [44]: > 100 µM; TGI [44]: > 100 µM; GI50 [45]: 30.2 µM; TGI [45]: > 100 µM; GI50 [46]: 6.46 µM; TGI [46]: 71.5 µM; GI50 [47]: 5.43 µM; TGI [47]: > 100 µM; GI50 [48]: 3.11 µM; TGI [48]: 10.2 µM; GI50 [58]: 2360 nM; TGI [58]: 7.3 µM; GI50 [59]: 8.88 µM; TGI [59]: 21.4 µM; GI50 [49]: 3.49 µM; TGI [49]: 14.3 µM; GI50 [50]: 3.63 µM; TGI [50]: > 100 µM; GI50 [51]: 7.17 µM; TGI [51]: 19.5 µM; GI50 [52]: 85.2 µM; TGI [52]: > 100 µM
